We go through ten compounds from patent publication US11957759B1, “Rapidly accelerated fibrosarcoma (RAF) degrading compounds and associated methods of use” (Arvinas Operations, Inc., priority 2022, dated 2024).

In one test the target is T1, B-RAF G466V (Homo sapiens, UniProt P15056, G466V).
T1 construct: expressed in transfected cells; host or cells: T-Rex 293 cells (Invitrogen #R71007)
Put plainly: Target protein degradation, assay D: T-Rex 293 cells, HA-BRAF_G466V, 384 well format. The test is classed as cell-based. The following applies: T-Rex 293 HA-BRAF_G466V cells, 24 hours, Examples 83-269; for DC50: Assay D; for Dmax: T-REx-293, Assay D. An outline of the steps: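 T-Rex 293 cells stably expressing doxycycline-induced (1 ng/mL) HA-BRAF G466V treated 24 h at 37 °C with PROTACs, 11-point 1:3 dilution, 300 nM to 5 pM final, 0.5% DMSO. Fixed cells immunostained for HA and imaged by high-content microscopy; DC50 and Dmax (% of control) derived, toxicity from nuclei counts versus DMSO.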

The next test has as its target T2, B-RAF V600E (Homo sapiens, UniProt P15056, V600E).
T2 construct: expressed in transfected cells; host or cells: T-Rex 293 cells (Invitrogen #R71007)
As to the kind of experiment: Target protein degradation, assay C: T-Rex 293 cells, HA-BRAF_V600E, 384 well format. The test is classed as cell-based. The following applies: T-Rex 293 HA-BRAF_V600E cells, 24 hours, Examples 83-269; for DC50: Assay C; for Dmax: T-REx-293, Assay C. An outline of the steps: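 T-Rex 293 cells stably expressing doxycycline-induced (1 ng/mL) HA-BRAF V600E were treated 24 h at 37 °C with compound (300 nM–5 pM, 11 points, 0.5% DMSO). HA immunofluorescence was quantified by high-content imaging to give DC50 and Dmax (% of control); nuclei counts versus DMSO gauged toxicity.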

T1 sequence (P15056 whole entry G466V): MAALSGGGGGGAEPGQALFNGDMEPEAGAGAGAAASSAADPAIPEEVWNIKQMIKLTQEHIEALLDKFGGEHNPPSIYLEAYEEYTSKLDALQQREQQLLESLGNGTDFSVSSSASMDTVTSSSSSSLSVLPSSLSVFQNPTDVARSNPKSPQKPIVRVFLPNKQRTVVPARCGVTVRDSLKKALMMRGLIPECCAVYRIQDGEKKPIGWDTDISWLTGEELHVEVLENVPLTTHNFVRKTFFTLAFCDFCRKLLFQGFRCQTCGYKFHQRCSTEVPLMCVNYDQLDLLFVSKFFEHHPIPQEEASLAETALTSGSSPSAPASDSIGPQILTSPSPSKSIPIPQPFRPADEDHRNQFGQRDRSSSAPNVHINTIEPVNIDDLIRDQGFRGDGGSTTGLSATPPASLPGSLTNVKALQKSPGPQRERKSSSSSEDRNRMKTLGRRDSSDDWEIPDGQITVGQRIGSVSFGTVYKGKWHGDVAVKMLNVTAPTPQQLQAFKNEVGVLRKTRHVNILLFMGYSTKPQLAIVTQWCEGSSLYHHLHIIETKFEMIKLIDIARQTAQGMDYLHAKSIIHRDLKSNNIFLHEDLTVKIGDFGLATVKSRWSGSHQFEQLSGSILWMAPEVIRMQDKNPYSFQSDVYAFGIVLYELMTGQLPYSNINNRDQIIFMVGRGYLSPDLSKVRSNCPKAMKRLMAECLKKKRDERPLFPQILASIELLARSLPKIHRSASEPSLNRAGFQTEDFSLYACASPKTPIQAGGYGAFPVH
T2 sequence (P15056 whole entry V600E): as the sequence (P15056 whole entry G466V) above, with V466G, V600E counted along it

For the compound `CCc1c(NS(=O)(=O)N2CC[C@@H](F)C2)ccc(F)c1Oc1ccc2ncn(-c3ccc(N4CCN(CC5CCN(c6ccc7c(c6)CN(C6CCC(=O)NC6=O)C7=O)CC5)CC4)cc3)c(=O)c2c1` (stereo partly drawn) [Example 227, (3R)-N-{3-[(3-{4-[4-({1-[2-(2,6-dioxopiperidin-3-yl)-1-oxo-2,3-dihydro-1H-isoindol-5-yl]piperidin-4-yl}methyl)piperazin-1-yl]phenyl}-4-oxo-3,4-dihydroquinazolin-6-yl)oxy]-2-ethyl-4-fluorophenyl}-3-fluoropyrrolidine-1-sulfonamide], at B-RAF G466V, the DC50 was in the range of 10 to 30 nM and the greatest degradation seen (Dmax) was no more than 35%. On B-RAF V600E, this compound yielded a DC50 of 50 to 500 nM and a Dmax of no more than 35%.

On B-RAF G466V, `N#Cc1c(NS(=O)(=O)N2CC[C@@H](F)C2)ccc(F)c1Oc1ccc2ncn(-c3ccc(N4CCC(CN5CCC(Oc6ccc7c(c6)C(=O)N(C6CCC(=O)NC6=O)C7=O)CC5)CC4)nc3)c(=O)c2c1` (stereo partly drawn) [Example 149, (3R)-N-(2-cyano-3-{[3-(6-{4-[(4-{[2-(2,6-dioxopiperidin-3-yl)-1,3-dioxo-2,3-dihydro-1H-isoindol-5-yl]oxy}piperidin-1-yl)methyl]piperidin-1-yl}pyridin-3-yl)-4-oxo-3,4-dihydroquinazolin-6-yl]oxy}-4-fluorophenyl)-3-fluoropyrrolidine-1-sulfonamide] returned a DC50 of 10 to 30 nM and a Dmax of 35 to 70%. On B-RAF V600E, this compound gave a DC50 of 5 to 50 nM and a Dmax of no more than 35%.

On to `N#Cc1c(NS(=O)(=O)N2CC[C@@H](F)C2)ccc(F)c1Oc1ccc2ncn(-c3ccc(C4CCN(CC5CN(c6ccc7c(c6Cl)CN([C@H]6CCC(=O)NC6=O)C7=O)C5)CC4)cc3)c(=O)c2c1` [Example 258, (3R)-N-(3-{[3-(4-{1-[(1-{4-chloro-2-[(3S)-2,6-dioxopiperidin-3-yl]-1-oxo-2,3-dihydro-1H-isoindol-5-yl}azetidin-3-yl)methyl]piperidin-4-yl}phenyl)-4-oxo-3,4-dihydroquinazolin-6-yl]oxy}-2-cyano-4-fluorophenyl)-3-fluoropyrrolidine-1-sulfonamide], for which the values for the half-maximal degradation concentration (DC50) at B-RAF G466V and at B-RAF V600E were 1 to 10 nM and 50 to 500 nM, respectively. Also, the maximal degradation (Dmax) on B-RAF G466V and at B-RAF V600E was 35 to 70% each time.

For `N#Cc1c(NS(=O)(=O)N2CC[C@@H](F)C2)ccc(F)c1Oc1ccc2ncn(-c3ccc(N4CCN(CC5CCN(c6ccc(F)c(C(=O)NC7CCC(=O)NC7=O)c6)CC5)CC4)nc3)c(=O)c2c1` (stereo partly drawn) [Example 140, 5-(4-{[4-(5-{6-[2-cyano-6-fluoro-3-({[(3R)-3-fluoropyrrolidin-1-yl]sulfonyl}amino)phenoxy]-4-oxo-3,4-dihydroquinazolin-3-yl}pyridin-2-yl)piperazin-1-yl]methyl}piperidin-1-yl)-N-(2,6-dioxopiperidin-3-yl)-2-fluorobenzamide], the figures for the half-maximal degradation concentration (DC50) at B-RAF G466V and at B-RAF V600E were greater than 30 nM and 50 to 500 nM, respectively. The Dmax on B-RAF V600E was no more than 35%.

Regarding `C[C@H]1CC(CN2CCC(c3ccc4c(c3)CN(C3CCC(=O)NC3=O)C4=O)CC2)CCN1c1ccc(-n2cnc3ccc(Oc4c(F)ccc(NS(=O)(=O)N5CC[C@@H](F)C5)c4C#N)cc3c2=O)cc1` (stereo partly drawn) [Example 232, (3R)-N-{2-cyano-3-[(3-{4-[(2S)-4-({4-[2-(2,6-dioxopiperidin-3-yl)-1-oxo-2,3-dihydro-1H-isoindol-5-yl]piperidin-1-yl}methyl)-2-methylpiperidin-1-yl]phenyl}-4-oxo-3,4-dihydroquinazolin-6-yl)oxy]-4-fluorophenyl}-3-fluoropyrrolidine-1-sulfonamide], at B-RAF G466V, the half-maximal degradation concentration (DC50) was 1 to 10 nM and the Dmax fell in the range of 35 to 70%. Also, at B-RAF V600E, the DC50 lay within 50 to 500 nM and the greatest degradation seen (Dmax) lay in the range of 35 to 70%.

At B-RAF G466V, `N#Cc1c(NS(=O)(=O)N2CC[C@@H](F)C2)ccc(F)c1Oc1ccc2ncn(-c3ccc(N4CCC(c5ccc6c(c5)CN(C5CCC(=O)NC5=O)C6=O)CC4)nc3)c(=O)c2c1` (stereo partly drawn) [Example 136, (3R)-N-(2-cyano-3-{[3-(6-{4-[2-(2,6-dioxopiperidin-3-yl)-1-oxo-2,3-dihydro-1H-isoindol-5-yl]piperidin-1-yl}pyridin-3-yl)-4-oxo-3,4-dihydroquinazolin-6-yl]oxy}-4-fluorophenyl)-3-fluoropyrrolidine-1-sulfonamide] returned a DC50 of 1 to 10 nM and a Dmax of 35 to 70%. Besides, at B-RAF V600E, the DC50 lay in the range of 5 to 50 nM and the maximal degradation (Dmax) is no more than 35%.

With `N#Cc1c(NS(=O)(=O)N2CC[C@@H](F)C2)ccc(F)c1Oc1ccc2ncn(-c3ccc(N4CCC(CN5CC6(CCC(c7ccc8c(c7)CN(C7CCC(=O)NC7=O)C8=O)CC6)C5)C4)cc3)c(=O)c2c1` (single isomer, unassigned) [Example 261, (3R)-N-(2-cyano-3-{[3-(4-{3-[(7-{2-[(3R*)-2,6-dioxopiperidin-3-yl]-1-oxo-2,3-dihydro-1H-isoindol-5-yl}-2-azaspiro[3.5]nonan-2-yl)methyl]pyrrolidin-1-yl}phenyl)-4-oxo-3,4-dihydroquinazolin-6-yl]oxy}-4-fluorophenyl)-3-fluoropyrrolidine-1-sulfonamide], the DC50 on B-RAF G466V lay within 1 to 10 nM; on B-RAF V600E, 50 to 500 nM.

Turning to `N#Cc1c(NS(=O)(=O)N2CC[C@@H](F)C2)ccc(F)c1Oc1ccc2ncn(C3COC4(CCN(C(=O)CC5(O)CCN(c6ccc7c(c6)CN([C@H]6CCC(=O)NC6=O)C7=O)CC5)CC4)C3)c(=O)c2c1` (stereo partly drawn) [Example 180, (3R)—N-{2-cyano-3-[(3-{8-[2-(1-{2-[(3S)-2,6-dioxopiperidin-3-yl]-1-oxo-2,3-dihydro-1H-isoindol-5-yl}-4-hydroxypiperidin-4-yl)acetyl]-1-oxa-8-azaspiro[4.5]decan-3-yl}-4-oxo-3,4-dihydroquinazolin-6-yl)oxy]-4-fluorophenyl}-3-fluoropyrrolidine-1-sulfonamide], at B-RAF G466V, the half-maximal degradation concentration (DC50) is greater than 30 nM and the Dmax lay within 35 to 70%. At B-RAF V600E, this compound had a 50% degradation concentration (DC50) of 50 to 500 nM and a Dmax of 35 to 70%.

`N#Cc1c(NS(=O)(=O)N2CC[C@@H](F)C2)ccc(F)c1Oc1ccc2ncn(-c3ccc(N4CCC(CN5CC(c6ccc7c(c6)CN(C6CCC(=O)NC6=O)C7=O)C5)CC4)cc3)c(=O)c2c1` (stereo partly drawn) [Example 101, (3R)-N-{2-cyano-3-[(3-{4-[4-({3-[2-(2,6-dioxopiperidin-3-yl)-1-oxo-2,3-dihydro-1H-isoindol-5-yl]azetidin-1-yl}methyl)piperidin-1-yl]phenyl}-4-oxo-3,4-dihydroquinazolin-6-yl)oxy]-4-fluorophenyl}-3-fluoropyrrolidine-1-sulfonamide]: on B-RAF G466V, the DC50 fell in the range of 1 to 10 nM and the maximal degradation (Dmax) lay in the range of 35 to 70%. At B-RAF V600E, this compound gave a half-maximal degradation concentration (DC50) of 50 to 500 nM and a Dmax of 35 to 70%.

As to `N#Cc1c(NS(=O)(=O)N2CC[C@@H](F)C2)ccc(F)c1Oc1ccc2ncn(-c3ccc(N4CCC(COCC5CCN(c6ccc7c(c6)C(=O)N(C6CCC(=O)NC6=O)C7=O)CC5)CC4)nc3)c(=O)c2c1` (stereo partly drawn) [Example 144, (3R)-N-(2-cyano-3-{[3-(6-{4-[{{1-[2-(2,6-dioxopiperidin-3-yl)-1,3-dioxo-2,3-dihydro-1H-isoindol-5-yl]piperidin-4-yl}methoxy)methyl]piperidin-1-yl}pyridin-3-yl)-4-oxo-3,4-dihydroquinazolin-6-yl]oxy}-4-fluorophenyl)-3-fluoropyrrolidine-1-sulfonamide], on B-RAF G466V, the half-maximal degradation concentration (DC50) is 10 to 30 nM and the Dmax is no more than 35%. Further, at B-RAF V600E, the half-maximal degradation concentration (DC50) is 5 to 50 nM and the Dmax is no more than 35%.

As a reminder, the DC50 is the midpoint of the concentration-degradation curve. The low end stands for degradation at low concentration, the high end for degradation only at high concentration. One may read the Dmax as the largest share of the target that was removed. A low value points to shallow degradation.
